≈ marks a conversion by molar mass, not a printed value.
What was measured:
Acinetobacter baumannii = assay: SIgA breakdown / secretory component liberation by Acinetobacter baumannii (Western blot); assay type: cell-based; conditions: for inhibition of SIgA reduction and SC liberation: 2 hours after incubation
Protocol: Acinetobacter baumannii was incubated with 50 μg/mL SIgA to examine breakdown of the immunoglobulin. Breakdown of SIgA by A. baumannii was observed by liberation of secretory component from dimeric IgA. Goat anti-human secretory component (free and bound) antibody was used to monitor this occurrence though Western blot. A mixture of A. baumannii strain Ci79 was prepared in three concentrations −10^7, 10^6, and 10^5 CFU/mL—to determine whether SIgA breakdown was dose dependent with respect to bacterial concentration FIG. 1A. […] Next, two competitive inhibitors of reductase enzymes targeting the thioredoxin fold (-C-X-X-C-) motif typically found in thiol-reductase enzymes (thioredoxin, glutathione, thioredoxin reductase, etc) were identified. The first, dithionitrobenzoic acid (Ellman's reagent) is often used as a colorimetric substrate to monitor thioredoxin activity as it produces a bright yellow color upon cleavage of the disulfide bond within the molecule. The second is PX-12. […] (Error bars represent ±SEM in all graphs; statistical differences determined by ANOVA with Dunnett correction; * significance p<0.01; ** p<0.001).

A. baumannii strain Ci79 = assay: Bacterial adherence to mouse intestinal sections; assay type: cell-based, Acinetobacter baumannii
Protocol: Intestinal sections were cut down one side to expose the inner lumen of the intestine and individually placed in suspensions of A. baumannii strain Ci79 (10^7 CFU/mL). The sections were incubated in this mixture for 30 minutes, washed twice in 250 volumes of sterile PBS and soaked in 500 volumes of PBS (volume of section ˜50-100 μL) for five minutes. The remaining bound bacteria were enumerated through homogenization of each section into single cell suspensions in 10 mL sterile PBS followed by dilution plating.

[1] = cited from earlier work
[2] = test system: multi-drug resistant (MDR) Acinetobacter baumannii clinical isolates; assay: Minimum inhibitory concentration (MIC) determination; assay type: cell-based
Protocol: PX-12 concentrations used in these experiments approximated the concentration reported “well tolerated” by mice (˜500 μg/mouse; 500 μg/mL for this experiment). […] Furthermore, this concentration was also bactericidal leading us to believe it may potentially be useful as a new antimicrobial compound for treating MDR Acinetobacter baumannii. (Bacterial concentrations used in presented studies ˜100× higher than recommended by CLSI standards)

SMILES | SIgA breakdown by Acinetobacter baumannii after addition of inhibitor (Acinetobacter baumannii) | inhibition of SIgA reduction and SC liberation (Acinetobacter baumannii; 1 mM) | inhibition of SIgA reduction at 24 hours (Acinetobacter baumannii; 24 hours) | time after which inhibition is overcome by the bacteria (Acinetobacter baumannii) | inhibition of SIgA reduction and SC liberation (Acinetobacter baumannii; 15 μg/mL) | SIgA breakdown by Acinetobacter baumannii (Acinetobacter baumannii; 18 μg/mL, up to 2 hours following treatment) | bacterial adherence to intestinal sections (A. baumannii strain Ci79; 18 μg/mL, sections from WT C57BL/6 mice) | reduction of bacterial attachment (A. baumannii strain Ci79; WT intestinal sections as 100% control, Ci79 10^7 CFU/mL, 30 minutes) | concentration reported well tolerated by mice [1] | bacterial pellet size ([2]; 500 μg/mL) | MIC ([2]; Acinetobacter baumannii) | bactericidal effect ([2]; at 31.25 μg/mL) | bactericidal activity (low MIC combined with low MBC) ([2]; repeat MIC to CLSI standards, ~5×10^5 CFU/mL, 64 to 0.5 μg/mL)
O=C(O)c1cc(SSc2ccc([N+](=O)[O-])c(C(=O)O)c2)ccc1[N+](=O)[O-] [Ellman's reagent, dithionitrobenzoic acid] | significantly reduced | completely ablated | inhibition was still evident |  |  |  |  |  |  |  |  |  | 
CCC(C)SSc1ncc[nH]1 (stereo not shown) [PX-12, 1-methylpropyl 2-imidazolyl disulfide] |  |  |  | about 12 hours | completely ablated | significantly reduced | significantly inhibits | ~40% | ~500 μg/mouse | visible decrease in bacterial pellet size | 31.2 µg/mL (≈ 166 µM) | bactericidal | bactericidal activity

Source: patent publication US10478485B2, “Methods and compositions to prevent or treat bacterial infections” (priority 2015, dated 2019)
